Data from patent US20260209275A1, “PEPTIDE(S), COMPOSITION(S) AND METHOD(S) HAVING BROAD SPECTRUM ACTIVITY AGAINST CROP INSECTS” (TELLURIS BIOTECH INDIA PRIVATE LIMITED, priority 2022, published 2026).

Test system: Common fruit fly, Drosophila melanogaster
Test: Diet surface treatment bioassay against common fruit fly, population after one generation
Format: in vivo
Details: single peptide 0.1 mg/ml; after 14 days (one generation)
Procedure: A trap made up from a ripened banana was kept in an open, shady, and damp place to capture the flies. Captured flies were anaesthetized using about 5% Triethylamine (TAE) treatment for about 1 minute. Drosophila melanogaster files were identified, separated, and transferred to a flask containing diet made up of Corn flour: about […], Sugar: about 51 μm, Agar agar: about […], Yeast: about 17 μm, Methyl Paraben: about 4 μm, Propionic acid: about 4 ml, Distilled Water: about 1200 ml. Freshly emerged flies were transferred to separate bottle to synchronize the population. The population was maintained in a separate room at a temperature of about 25±2° C., RH of about 60-65% and was subjected to a 16:8 (light: dark) h photoperiod.
The insecticide stock solutions were prepared by dilution with phosphate buffered saline (PBS, pH 7.0) to achieve desire doses of test. Semi synthetic artificial diet surface treatment method was used to assess the efficacy of IPPs against […]. Diet was prepared as per the composition given above. 2 ml hot liquid diet poured in 25 ml glass vials (5 cm h and 1.5 cm diameter) and allowed to cool and solid. […] After 14 days precisely after one generation, insect stages, egg, larvae, pupa and adults were counted.

CC[C@H](C)[C@H](NC(=O)[C@H](CCC(N)=O)NC(=O)[C@H](CCC(N)=O)NC(=O)[C@H](CCC(=O)O)NC(=O)[C@H](CCCCN)NC(=O)[C@H](CCC(N)=O)NC(=O)[C@H](CCC(=O)O)NC(=O)[C@H](C)NC(=O)[C@@H](N)CCSC)C(=O)N[C@@H](CC(C)C)C(=O)N[C@@H](CCCNC(=N)N)C(=O)N[C@@H](CC(C)C)C(=O)N[C@@H](CCCNC(=N)N)C(=O)N[C@@H](CCC(=O)O)C(=O)N[C@@H](CO)C(=O)N[C@@H](Cc1c[nH]cn1)C(=O)N[C@@H](Cc1c[nH]cn1)C(=O)N[C@@H](Cc1c[nH]cn1)C(=O)N[C@@H](Cc1c[nH]cn1)C(=O)N[C@@H](Cc1c[nH]cn1)C(=O)N[C@@H](Cc1c[nH]cn1)C(=O)O [Seq. ID No. 3, MAEQKEQQILRLRES]
Observed Response (Percent reduction of population over UTC) SEQ ID No. X / SEQ ID No. Y: 37.79%
